Test system: uterine gene expression
Test: Gene expression profiling (HGU133A) in the uterus of ovariectomized monkeys treated with estradiol, tamoxifen or raloxifene
Type: in vivo, cynomolgus monkeys (Macaca fascicularis)
Conditions: uterus, OVX monkeys

## O=C(c1ccc(OCCN2CCCCC2)cc1)c1c(-c2ccc(O)cc2)sc2cc(O)ccc12 [raloxifene]
  Fold change relative to SHAM control: Fibulin 1: 0.8 fold
  Fold change relative to SHAM control: G1 to S phase transition 1: 0.7 fold
  Fold change relative to SHAM control: Growth associated protein 43: 0.7 fold
  Fold change relative to SHAM control: H2A histone family, member Y: 0.8 fold
  Fold change relative to SHAM control: Heparan sulfate proteoglycan 2 (perlecan): 0.6 fold
  Fold change relative to SHAM control: Histone H2A.F/Z variant: 1.0 fold
  Fold change relative to SHAM control: Insulin-like growth factor binding protein 2, 36 kda: 0.7 fold
  Fold change relative to SHAM control: Insulin-like growth factor binding protein 5: 1.1 fold
  Fold change relative to SHAM control: Intercrine-alpha, mrna sequence: 0.8 fold
  Fold change relative to SHAM control: Laminin, beta 1: 0.8 fold
  Fold change relative to SHAM control: Latent transforming growth factor beta binding protein 1: 0.8 fold
  Fold change relative to SHAM control: Matrix metalloproteinase 19: 0.2 fold
  Fold change relative to SHAM control: Nidogen (enactin): 1.7 fold
  Fold change relative to SHAM control: Osteoglycin (osteoinductive factor, mimecan): 0.7 fold
  Fold change relative to SHAM control: Peroxiredoxin 1: 0.8 fold
  Fold change relative to SHAM control: Pituitary tumour-transforming 1 interacting protein: 0.7 fold
  Fold change relative to SHAM control: Procollagen C-endopeptidase enhancer: 0.8 fold
  Fold change relative to SHAM control: Procollagen-proline, 2-oxoglutarate 4-dioxygenase (proline 4-hydroxylase), alpha polypeptide II: 0.8 fold
  Fold change relative to SHAM control: SET domain, bifurcated 1: 0.8 fold
  Fold change relative to SHAM control: SPARC-like 1 (mast9, hevin): 1.1 fold
  Fold change relative to SHAM control: Secreted protein, acidic, cysteine-rich (osteonectin): 0.8 fold
  Fold change relative to SHAM control: Serine (or cysteine) proteinase inhibitor, clade H (heat shock protein 47), member 1, (collagen binding protein 1): 0.7 fold
  Fold change relative to SHAM control: Solute carrier family 22 (organic cation transporter), member 1-like: 0.8 fold
  Fold change relative to SHAM control: Solute carrier family 25 (mitochondrial carrier; adenine nucleotide translocator), member 5: 0.8 fold
  Fold change relative to SHAM control: Stem cell growth factor; lymphocyte secreted C-type lectin: 0.7 fold
  Fold change relative to SHAM control: Tenascin C (hexabrachion): 0.8 fold
  Fold change relative to SHAM control: Testis Enhanced Gene Transcript (Bax Inhibitor 1): 1.1 fold
  Fold change relative to SHAM control: Thioredoxin interacting protein: 1.7 fold
  Fold change relative to SHAM control: Transforming growth factor, beta-induced, 68 kda: 0.8 fold
  Fold change relative to SHAM control: Ubiquinol-cytochrome c reductase, Rieske iron-sulfur polypeptide 1: 0.8 fold
Table 46
  Fold change relative to OVX: Insulin receptor: 0.9 fold
Table 51
  Fold change relative to OVX: Insulin receptor: 0.9 fold
  Fold change relative to SHAM control: Insulin receptor: 1.4 fold
Entry with OVX average 39
  Fold change relative to OVX: Fibronectin 1: 2.3 fold
Entry with OVX average 79
  Fold change relative to OVX: Bone morphogenetic protein 1: 1.2 fold
Entry with OVX average 93
  Fold change relative to OVX: Bone morphogenetic protein 1: 1.4 fold
Entry with OVX average 102
  Fold change relative to OVX: Insulin-like growth factor 1 (somatomedin C): 1.5 fold
Entry with OVX average 124
  Fold change relative to OVX: Fibrillin 1 (Marfan syndrome): 2.1 fold
Entry with OVX average 154
  Fold change relative to OVX: Collagen, type I, alpha 2: 3.2 fold
Entry with OVX average 156
  Fold change relative to OVX: Insulin-like growth factor 1 (somatomedin C): 2.2 fold
Entry with OVX average 171
  Fold change relative to OVX: Solute carrier family 2 (facilitated glucose/fructose transporter), member 5: 1.2 fold
Entry with OVX average 176
  Fold change relative to OVX: Solute carrier family 2 (facilitated glucose/fructose transporter), member 5: 1.0 fold
Entry with OVX average 182
  Fold change relative to OVX: Collagen, type IV, alpha 1: 1.8 fold
Entry with OVX average 224
  Fold change relative to OVX: Cyclin-dependent kinase inhibitor 1C (p57, Kip2): 0.9 fold
Entry with OVX average 310
  Fold change relative to OVX: Insulin-like growth factor 1 (somatomedin C): 2.3 fold
Entry with OVX average 419
  Fold change relative to OVX: Fibronectin 1: 2.2 fold
Entry with OVX average 527
  Fold change relative to OVX: Cyclin-dependent kinase inhibitor 1C (p57, Kip2): 1.2 fold
Entry with OVX average 586
  Fold change relative to OVX: Fibronectin 1: 2.2 fold
Entry with OVX average 648
  Fold change relative to OVX: Fibronectin 1: 1.7 fold
Entry with OVX average 690
  Fold change relative to OVX: Collagen, type IV, alpha 1: 1.2 fold
Entry with OVX average 757
  Fold change relative to OVX: Fibronectin 1: 1.9 fold
Entry with OVX average 762
  Fold change relative to OVX: Cyclin-dependent kinase inhibitor 1C (p57, Kip2): 1.1 fold
Entry with OVX average 811
  Fold change relative to OVX: ATP synthase, H+ transporting, mitochondrial F0 complex, subunit c (subunit 9) isoform 3: 1.2 fold
Entry with OVX average 874
  Fold change relative to OVX: Fibrillin 1 (Marfan syndrome): 1.5 fold
Entry with OVX average 1007
  Fold change relative to OVX: ATP synthase, H+ transporting, mitochondrial F0 complex, subunit c (subunit 9) isoform 3: 1.2 fold
Entry with OVX average 1084
  Fold change relative to OVX: Collagen, type III, alpha 1 (Ehlers-Danlos syndrome type IV, autosomal dominant): 1.9 fold
Entry with OVX average 2757
  Fold change relative to OVX: Collagen, type I, alpha 2: 2.2 fold
Entry with OVX average 3445
  Fold change relative to OVX: Collagen, type III, alpha 1 (Ehlers-Danlos syndrome type IV, autosomal dominant): 2.0 fold
Entry with OVX average 9495
  Fold change relative to OVX: H3 histone, family 3A: 0.9 fold
Entry with OVX average 9692
  Fold change relative to OVX: H3 histone, family 3A: 1.0 fold
Entry with SHAM average 100
  Fold change relative to SHAM control: Fibronectin 1: 0.9 fold
Entry with SHAM average 143
  Fold change relative to SHAM control: Bone morphogenetic protein 1: 0.7 fold
Entry with SHAM average 201
  Fold change relative to SHAM control: Cyclin-dependent kinase inhibitor 1C (p57, Kip2): 1.0 fold
Entry with SHAM average 205
  Fold change relative to SHAM control: Bone morphogenetic protein 1: 0.6 fold
Entry with SHAM average 226
  Fold change relative to SHAM control: Insulin-like growth factor 1 (somatomedin C): 0.7 fold
Entry with SHAM average 236
  Fold change relative to SHAM control: Fibrillin 1 (Marfan syndrome): 1.1 fold
Entry with SHAM average 291
  Fold change relative to SHAM control: Solute carrier family 2 (facilitated glucose/fructose transporter), member 5: 0.6 fold
Entry with SHAM average 317
  Fold change relative to SHAM control: Solute carrier family 2 (facilitated glucose/fructose transporter), member 5: 0.7 fold
Entry with SHAM average 417
  Fold change relative to SHAM control: Insulin-like growth factor 1 (somatomedin C): 0.8 fold
Entry with SHAM average 436
  Fold change relative to SHAM control: Collagen, type IV, alpha 1: 0.7 fold
Entry with SHAM average 459
  Fold change relative to SHAM control: Cyclin-dependent kinase inhibitor 1C (p57, Kip2): 1.4 fold
Entry with SHAM average 493
  Fold change relative to SHAM control: Collagen, type I, alpha 2: 1.0 fold
Entry with SHAM average 581
  Fold change relative to SHAM control: Insulin-like growth factor 1 (somatomedin C): 1.2 fold
Entry with SHAM average 660
  Fold change relative to SHAM control: Cyclin-dependent kinase inhibitor 1C (p57, Kip2): 1.3 fold
Entry with SHAM average 920
  Fold change relative to SHAM control: Fibronectin 1: 1.0 fold
Entry with SHAM average 1045
  Fold change relative to SHAM control: ATP synthase, H+ transporting, mitochondrial F0 complex, subunit c (subunit 9) isoform 3: 0.9 fold
Entry with SHAM average 1089
  Fold change relative to SHAM control: Fibronectin 1: 1.2 fold
Entry with SHAM average 1143
  Fold change relative to SHAM control: Collagen, type IV, alpha 1: 0.7 fold
Entry with SHAM average 1288
  Fold change relative to SHAM control: Fibronectin 1: 0.9 fold
Entry with SHAM average 1301
  Fold change relative to SHAM control: Fibronectin 1: 1.1 fold
Entry with SHAM average 1355
  Fold change relative to SHAM control: ATP synthase, H+ transporting, mitochondrial F0 complex, subunit c (subunit 9) isoform 3: 0.9 fold
Entry with SHAM average 1388
  Fold change relative to SHAM control: Fibrillin 1 (Marfan syndrome): 1.0 fold
Entry with SHAM average 2992
  Fold change relative to SHAM control: Collagen, type III, alpha 1 (Ehlers-Danlos syndrome type IV, autosomal dominant): 0.7 fold
Entry with SHAM average 7354
  Fold change relative to SHAM control: Collagen, type III, alpha 1 (Ehlers-Danlos syndrome type IV, autosomal dominant): 1.0 fold
Entry with SHAM average 7758
  Fold change relative to SHAM control: Collagen, type I, alpha 2: 0.8 fold
Entry with SHAM average 9408
  Fold change relative to SHAM control: H3 histone, family 3A: 0.9 fold
Entry with SHAM average 10239
  Fold change relative to SHAM control: H3 histone, family 3A: 1.0 fold

— patent publication US20130040882A1, “USE OF FIBROBLAST GROWTH FACTOR FRAGMENTS” (NOVARTIS AG, priority 2003, published 2013)
